Source: PubChem BioAssay AID256 (DTP/NCI, 2004)
“And” between values parts separate entries of the source, which are not always exact repeats. Equal values may be shown once. Inconclusive results and toxic doses are left out. The calls were made as follows: active = survival T/C of 150% or more; inactive = T/C below 125% in these data.

Tested on: CD2F1 mice, L1210 leukemia ip, survival T/C
Test: NCI In Vivo Anticancer Drug Screen. Data for tumor model L1210 Leukemia (intraperitoneal) in CD2F1 (CDF1) mice
Details: endpoint: mean survival time, higher = longer survival
Summary of the method: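 Read-out first: treated-group measurement over vehicle-control measurement, expressed as a ratio. Animals bore a transplanted tumor line and were dosed with compound or vehicle.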

[1] = dose: 100.0 mg/kg/injection, schedule: Q04DX003 (ip), vehicle: saline with Tween-80
[2] = dose: 200.0 mg/kg/injection, schedule: Q04DX003 (ip), vehicle: saline with Tween-80
[3] = dose: 400.0 mg/kg/injection, schedule: Q04DX003 (ip), vehicle: saline with Tween-80
[4] = dose: 100.0 mg/kg/injection, schedule: Q04DX002 (ip), vehicle: saline with Tween-80
[5] = dose: 200.0 mg/kg/injection, schedule: Q04DX002 (ip), vehicle: saline with Tween-80
[6] = dose: 400.0 mg/kg/injection, schedule: Q04DX002 (ip), vehicle: saline with Tween-80
[7] = dose: 100.0 mg/kg/injection, schedule: Q01DX009 (ip), vehicle: saline with Tween-80
[8] = dose: 100.0 mg/kg/injection, schedule: Q01DX001 (ip), vehicle: saline with Tween-80
[9] = dose: 50.0 mg/kg/injection, schedule: Q04DX003 (ip), vehicle: saline
[10] = dose: 100.0 mg/kg/injection, schedule: Q04DX003 (ip), vehicle: saline
[11] = dose: 25.0 mg/kg/injection, schedule: Q04DX002 (ip), vehicle: saline with Tween-80
[12] = dose: 50.0 mg/kg/injection, schedule: Q01DX009 (ip), vehicle: saline with Tween-80
[13] = dose: 200.0 mg/kg/injection, schedule: Q01DX009 (ip), vehicle: saline with Tween-80
[14] = dose: 200.0 mg/kg/injection, schedule: Q01DX001 (ip), vehicle: saline with Tween-80
[15] = dose: 400.0 mg/kg/injection, schedule: Q01DX001 (ip), vehicle: saline with Tween-80
[16] = dose: 400.0 mg/kg/injection, schedule: Q01DX009 (ip), vehicle: saline with Tween-80
[17] = dose: 25.0 mg/kg/injection, schedule: Q01DX009 (ip), vehicle: saline with Tween-80

Measured: T/C

N#CC(Cl)(Cl)C(N)=O
inactive: dose: 1.56 mg/kg/injection, schedule: Q04DX002 (ip), vehicle: saline 102 % of control | dose: 3.13 mg/kg/injection, schedule: Q04DX002 (ip), vehicle: saline 92 % of control | dose: 6.25 mg/kg/injection, schedule: Q04DX002 (ip), vehicle: saline 98 % of control

COC(=O)COc1cccc(NC(=O)CC(=O)c2cccc([N+](=O)[O-])c2)c1
inactive: dose: 100.0 mg/kg/injection, schedule: Q01DX009 (ip), vehicle: Klucel (hydroxypropylcellulose) (HPC) 98 % of control | [1] 101 % of control | dose: 200.0 mg/kg/injection, schedule: Q01DX009 (ip), vehicle: Klucel (hydroxypropylcellulose) (HPC) 97 % of control | [2] 98 % of control | dose: 400.0 mg/kg/injection, schedule: Q01DX009 (ip), vehicle: Klucel (hydroxypropylcellulose) (HPC) 96 % of control | [3] 93 % of control

CCOP(=S)(OCC)C(C)(C)C
inactive: [4] 107 % of control | [5] 103 % of control | [6] 95 % of control

Brc1sccc1-c1cccc2ccccc12
inactive: dose: 25.0 mg/kg/injection, schedule: Q04DX003 (ip), vehicle: saline with Tween-80 104 % of control | dose: 50.0 mg/kg/injection, schedule: Q04DX003 (ip), vehicle: saline with Tween-80 96 % of control | [1] 104 % of control

O=C1NC(c2ccccc2)N=C2Oc3ccccc3C=C12 (stereo not given)
inactive: dose: 1.56 mg/kg/injection, schedule: Q01DX009 (ip), vehicle: saline with Tween-80 103 % of control | dose: 3.12 mg/kg/injection, schedule: Q01DX009 (ip), vehicle: saline with Tween-80 94 % of control and 97 % of control and 98 % of control | dose: 6.25 mg/kg/injection, schedule: Q01DX009 (ip), vehicle: saline with Tween-80 100 % of control (2×) and 103 % of control | [7] 92 % of control

COc1cc2c(cc1OC)C13CCN4CC5=CCOC6CC(=O)N2C1C6C5CC43 (stereo not given) (tested in a mixture with another compound)
inactive: [8] 110 % of control | dose: 100.0 mg/kg/injection, schedule: Q01DX009 (ip), vehicle: saline 93 % of control

COc1cc([N+](=O)[O-])ccc1P(=O)(O)O
inactive: [9] 101 % of control | [10] 97 % of control | dose: 200.0 mg/kg/injection, schedule: Q04DX003 (ip), vehicle: saline 91 % of control

COC(C(O)C=O)C(O)C(O)CO (stereo not given)
inactive: [1] 96 % of control | [2] 101 % of control | [3] 95 % of control

CCCCSCCN
inactive: [11] 94 % of control | dose: 50.0 mg/kg/injection, schedule: Q04DX002 (ip), vehicle: saline with Tween-80 94 % of control | [4] 102 % of control

C=CS(=O)(=O)c1ccc([N+](=O)[O-])cc1
inactive: [11] 88 % of control

CCN(CC)C1=C(Cl)C(=O)C(=O)c2cccnc21
inactive: dose: 9.4 mg/kg/injection, schedule: Q01DX009 (ip), vehicle: saline 101 % of control

CCCCC(C#N)(CCCC)C(=O)OCC
inactive: [12] 101 % of control | [7] 91 % of control | [13] 97 % of control

c1ccc(-c2cscc2-c2ccccc2)cc1
inactive: [8] 96 % of control | [14] 96 % of control | [15] 96 % of control

COc1cc(OC)c2c(c1Cl)OCC2=O
inactive: [7] 91 % of control | [1] 103 % of control | [13] 91 % of control | [2] 94 % of control | [3] 97 % of control

CCN(CC)c1nc(CCc2ccc(N(C)C)cc2)c2[nH]cnc2n1
inactive: dose: 3.13 mg/kg/injection, schedule: Q01DX005 (ip), vehicle: other 94 % of control | dose: 6.25 mg/kg/injection, schedule: Q01DX005 (ip), vehicle: other 93 % of control | dose: 12.5 mg/kg/injection, schedule: Q01DX005 (ip), vehicle: other 93 % of control | dose: 25.0 mg/kg/injection, schedule: Q01DX005 (ip), vehicle: other 89 % of control | dose: 50.0 mg/kg/injection, schedule: Q01DX005 (ip), vehicle: other 89 % of control

CNc1ncnc2c(C3OC(CO)C(O)C3O)[nH]nc12 (stereo not given)
inactive: dose: 25.0 mg/kg/injection, schedule: Q01DX005 (ip), vehicle: water 108 % of control | dose: 50.0 mg/kg/injection, schedule: Q01DX005 (ip), vehicle: water 120 % of control | dose: 100.0 mg/kg/injection, schedule: Q01DX005 (ip), vehicle: water 96 % of control

O=[N+]([O-])CS(=O)(=O)N1CCOCC1
inactive: dose: 100.0 mg/kg/injection, schedule: Q01DX001 (ip), vehicle: saline 103 % of control | dose: 200.0 mg/kg/injection, schedule: Q01DX001 (ip), vehicle: saline 106 % of control | dose: 400.0 mg/kg/injection, schedule: Q01DX001 (ip), vehicle: saline 110 % of control

Cc1cc(C)c(C)cc1C
inactive: [7] 92 % of control | [1] 96 % of control | [13] 96 % of control | [2] 100 % of control | [16] 88 % of control | [3] 94 % of control

NN(C(=O)c1ccccc1)c1ccccc1
inactive: [7] 98 % of control | [1] 95 % of control | [2] 97 % of control | [3] 100 % of control

CSC(=CC(=O)c1ccccc1)SC
inactive: dose: 75.0 mg/kg/injection, schedule: Q01DX001 (ip), vehicle: saline 101 % of control | dose: 150.0 mg/kg/injection, schedule: Q01DX001 (ip), vehicle: saline 106 % of control

CC1=NN(c2ccccc2)C(=O)C1CC1C(=O)N(c2ccccc2)N=C1C (stereo not given)
inactive: [7] 101 % of control | [1] 96 % of control | [13] 107 % of control | [2] 92 % of control | [16] 101 % of control | [3] 88 % of control

CCCCN(c1ccccc1)S(=O)(=O)c1ccc(Br)cc1
inactive: [7] 97 % of control | [1] 98 % of control | [13] 95 % of control | [2] 102 % of control | [16] 97 % of control | [3] 101 % of control

COc1ccc(NC(=O)Oc2ccc3ccccc3c2)cc1
inactive: [4] 87 % of control | [5] 93 % of control | [6] 93 % of control

Nc1nc(N)c2nc3c4ccccc4c4ccccc4c3nc2n1
inactive: [8] 95 % of control | [7] 93 % of control | [14] 91 % of control | [15] 97 % of control

O=C(COc1ccc(Cl)c(Cl)c1)NCc1cccc(NC(=O)c2ccc(S(=O)(=O)F)cc2)c1
inactive: [8] 87 % of control | [14] 86 % of control | [15] 89 % of control

CC(=O)Nc1ccc(/C=N\NC(=O)CNC(=O)Nc2ccc(F)cc2)cc1
inactive: [12] 96 % of control | [7] 96 % of control

Cc1c(O)c(N=NC(N)=S)c2ccccc2c1O
inactive: [1] 100 % of control | [2] 102 % of control | [3] 100 % of control

Cc1cc(Cl)ccc1NC(=O)N1CCCC(C)C1 (stereo not given)
inactive: dose: 12.5 mg/kg/injection, schedule: Q01DX009 (ip), vehicle: saline with Tween-80 95 % of control | [17] 102 % of control | [12] 91 % of control

CCCCCCCCN(C)C
inactive: [17] 91 % of control | [12] 87 % of control

CCOn1nc(-c2ccccc2)oc1=O
inactive: dose: 100.0 mg/kg/injection, schedule: Q04DX003 (ip), vehicle: other 96 % of control | dose: 200.0 mg/kg/injection, schedule: Q04DX003 (ip), vehicle: other 93 % of control | dose: 400.0 mg/kg/injection, schedule: Q04DX003 (ip), vehicle: other 116 % of control

O=C(c1ccc(Cl)cc1)C(O)c1ccc(Cl)cc1 (stereo not given)
inactive: [7] 93 % of control | [1] 100 % of control | [13] 98 % of control | [2] 96 % of control | [16] 107 % of control | [3] 91 % of control

COc1ccc(NC(=O)Oc2ccc(Cl)cc2C)cc1
inactive: [4] 91 % of control | [5] 94 % of control | [6] 91 % of control

Cc1ccc(S(=O)(=O)OCC(OS(=O)(=O)c2ccc(C)cc2)C2OC3OC(C)(C)OC3C2OS(=O)(=O)c2ccc(C)cc2)cc1 (stereo not given)
inactive: [7] 103 % of control | [1] 96 % of control | [13] 103 % of control | [2] 87 % of control | [16] 89 % of control | [3] 90 % of control

CC([NH-])C[NH-].O=C(O)C(O)C(O)C(O)C(O)CO.O=C(O)C(O)C(O)C(O)C(O)CO.[Pt+2] (stereo not given)
inactive: dose: 25.0 mg/kg/injection, schedule: Q04DX003 (ip), vehicle: saline 113 % of control | [9] 120 % of control | [10] 123 % of control

C1=CSCCC1
inactive: dose: 25.0 mg/kg/injection, schedule: Q04DX002 (ip), vehicle: saline + alcohol 102 % of control | dose: 50.0 mg/kg/injection, schedule: Q04DX002 (ip), vehicle: saline + alcohol 94 % of control | dose: 100.0 mg/kg/injection, schedule: Q04DX002 (ip), vehicle: saline + alcohol 90 % of control

O=C(O)c1cc(Br)c(O)cc1O
inactive: [1] 97 % of control | [2] 97 % of control | [3] 87 % of control
